These results are taken from ChEMBL document CHEMBL1145006 (J Med Chem, 2003).

For assay [1], the target named is Somatostatin receptor type 3 (Homo sapiens, UniProt P32745). The assay can be described thus: Binding affinity towards human Somatostatin receptor type 3 (sst3) using Tyr11-[125I]-SRIF as radioligand was determined in CHO cells. It counts as cell-based.
Assay [2] has as its target Somatostatin receptor type 2 (Homo sapiens, UniProt P30874). The assay can be described thus: Binding affinity towards human Somatostatin receptor type 2 (sst2) using Tyr11-[125I]-SRIF as radioligand was determined in CHO cells. Type of assay: cell-based.
Assay [3] concerns the target Somatostatin receptor type 1 (Homo sapiens, UniProt P30872). Briefly: Binding affinity towards human Somatostatin receptor type 1 (sst1) using Tyr11-[125I]-SRIF as radioligand was determined in CHO cells. Type of assay: cell-based.
Assay [4] has as its target Somatostatin receptor type 5 (Homo sapiens, UniProt P35346). The assay can be described thus: Binding affinity towards human Somatostatin receptor type 5 (sst5) using Tyr11-[125I]-SRIF as radioligand was determined in COS cell. It counts as cell-based.
Assay [5] concerns the target Somatostatin receptor type 4 (Homo sapiens, UniProt P31391). Briefly: Binding affinity towards human Somatostatin receptor type 4 (sst4) using Tyr11-[125I]-SRIF as radioligand was determined in CHO cells. It counts as cell-based. The conditions noted are these: for Log Ki: cho.
The species named for assay [6] is Rattus norvegicus. Briefly: In vitro inhibition of GHRH induced GH release in primary cultures of rat pituitary cells. Type of assay: functional, cell-based. Conditions: Pituitary gland cell.

Starred links: 1 amine or outer side, 2 acyl side, 3 side chain; linkers in the order of their positions; H or OH if unused. Positions of bridges follow the written chain, without caps; N, C: chain ends. Non-standard residues stand in square brackets, D forms with d. Residues, ends and D or L forms follow the SMILES beside them. Groups on a side chain read outwards from the residue. *: point of attachment. Ethylenediamine = C(CN[*:2])N[*:1]; Hyp = O=C(O)[C@@H]1C[C@@H](O)CN1; Phg = N[C@H](C(=O)O)c1ccccc1; CO = O=C([*:1])[*:2]; Bn = c1ccc(C*)cc1 Where only a bound is given, the exact number is not on record here.

Sequence of Somatostatin receptor type 4 (P31391 whole entry): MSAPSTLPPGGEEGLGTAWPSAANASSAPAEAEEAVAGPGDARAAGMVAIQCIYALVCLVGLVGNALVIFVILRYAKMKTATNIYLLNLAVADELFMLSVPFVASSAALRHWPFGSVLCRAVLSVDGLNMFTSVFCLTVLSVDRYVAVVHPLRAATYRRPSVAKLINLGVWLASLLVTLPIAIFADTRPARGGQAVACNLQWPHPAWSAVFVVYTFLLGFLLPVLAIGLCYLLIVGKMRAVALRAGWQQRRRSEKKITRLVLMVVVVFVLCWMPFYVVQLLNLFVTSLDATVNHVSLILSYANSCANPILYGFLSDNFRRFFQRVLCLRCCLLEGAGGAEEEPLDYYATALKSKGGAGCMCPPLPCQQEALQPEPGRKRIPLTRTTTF
Sequence of Somatostatin receptor type 2 (P30874 whole entry): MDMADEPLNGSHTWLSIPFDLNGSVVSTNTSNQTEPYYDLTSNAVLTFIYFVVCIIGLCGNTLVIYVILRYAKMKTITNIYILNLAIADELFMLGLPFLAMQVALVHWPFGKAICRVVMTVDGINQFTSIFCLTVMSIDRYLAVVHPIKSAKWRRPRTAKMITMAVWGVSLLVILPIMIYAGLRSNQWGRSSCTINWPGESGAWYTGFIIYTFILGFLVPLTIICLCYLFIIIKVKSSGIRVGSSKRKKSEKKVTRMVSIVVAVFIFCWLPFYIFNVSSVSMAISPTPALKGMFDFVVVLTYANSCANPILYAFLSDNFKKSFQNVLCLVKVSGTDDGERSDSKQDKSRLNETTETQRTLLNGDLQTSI
Sequence of Somatostatin receptor type 5 (P35346 whole entry): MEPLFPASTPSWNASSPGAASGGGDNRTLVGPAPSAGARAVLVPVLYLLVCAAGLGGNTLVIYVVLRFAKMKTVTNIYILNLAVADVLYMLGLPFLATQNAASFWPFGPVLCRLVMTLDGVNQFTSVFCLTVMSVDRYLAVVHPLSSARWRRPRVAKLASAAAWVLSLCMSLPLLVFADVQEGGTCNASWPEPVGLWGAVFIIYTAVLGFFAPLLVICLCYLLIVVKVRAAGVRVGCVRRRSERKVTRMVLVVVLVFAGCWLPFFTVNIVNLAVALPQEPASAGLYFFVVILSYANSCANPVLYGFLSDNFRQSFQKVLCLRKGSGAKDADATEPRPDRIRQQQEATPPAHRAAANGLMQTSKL
Sequence of Somatostatin receptor type 3 (P32745 whole entry): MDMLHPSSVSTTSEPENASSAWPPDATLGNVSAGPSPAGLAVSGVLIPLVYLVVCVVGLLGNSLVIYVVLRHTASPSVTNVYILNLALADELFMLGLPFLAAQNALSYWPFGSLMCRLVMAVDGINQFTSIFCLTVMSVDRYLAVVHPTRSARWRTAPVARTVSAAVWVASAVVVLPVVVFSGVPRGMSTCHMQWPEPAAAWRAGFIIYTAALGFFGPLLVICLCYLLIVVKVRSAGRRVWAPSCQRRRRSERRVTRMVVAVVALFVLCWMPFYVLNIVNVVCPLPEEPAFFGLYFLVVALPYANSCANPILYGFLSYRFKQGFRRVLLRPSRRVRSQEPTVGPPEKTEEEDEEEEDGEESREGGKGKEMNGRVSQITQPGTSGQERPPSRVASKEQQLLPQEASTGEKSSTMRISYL
Sequence of Somatostatin receptor type 1 (P30872 whole entry): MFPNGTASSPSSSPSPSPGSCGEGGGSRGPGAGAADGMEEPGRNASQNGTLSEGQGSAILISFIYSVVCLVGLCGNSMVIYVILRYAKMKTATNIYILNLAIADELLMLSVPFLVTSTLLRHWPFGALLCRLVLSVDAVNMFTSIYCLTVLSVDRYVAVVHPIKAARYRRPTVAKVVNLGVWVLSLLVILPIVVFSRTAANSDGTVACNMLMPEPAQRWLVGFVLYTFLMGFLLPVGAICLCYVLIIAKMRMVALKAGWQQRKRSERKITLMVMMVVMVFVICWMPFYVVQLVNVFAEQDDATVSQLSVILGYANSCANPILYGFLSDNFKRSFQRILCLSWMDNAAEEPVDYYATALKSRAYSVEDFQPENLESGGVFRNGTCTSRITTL

In the case of `C[C@H](N)C(=O)NCC(=O)N[C@H]1CSSC[C@@H](C(N)=O)NC(=O)[C@H](CO)NC(=O)[C@H](C)NC(=O)[C@H](Cc2ccccc2)NC(=O)[C@H]([C@@H](C)O)NC(=O)[C@H](CCCCN)NC(=O)[C@H](Cc2c[nH]c3ccccc23)NC(=O)[C@H](Cc2ccccc2)NC(=O)[C@H](Cc2ccccc2)NC(=O)[C@H](CC(N)=O)NC(=O)[C@H](CCCCN)NC1=O` (H-AGCKNFFWKTFASC-NH2; disulfide 3-14), the Ki in assay [1] was 0.631 nM; in assay [2] it was 1.26 nM; in assay [3] it was 0.501 nM; in assay [4] it was 0.398 nM. Also, the Log Ki in assay [5] was > -9.2.

Take `C[C@H](N)C(=O)NCC(=O)N[C@H]1CSSC[C@@H](C(N)=O)NC(=O)[C@H](C)NC(=O)[C@H]([C@@H](C)O)NC(=O)[C@H](Cc2ccccc2)NC(=O)[C@H]([C@@H](C)O)NC(=O)[C@H](CCCCN)NC(=O)[C@H](Cc2c[nH]c3ccccc23)NC(=O)[C@H](Cc2ccccc2)NC(=O)[C@H](Cc2ccccc2)NC(=O)[C@H](CC(N)=O)NC(=O)[C@H](CCCCN)NC1=O` (H-AGCKNFFWKTFTAC-NH2; disulfide 3-14): the Ki in assay [1] is 0.631 nM; in assay [2], 0.0794 nM; in assay [3] it was 0.158 nM; in assay [4], 0.794 nM. Further, the Log Ki in assay [5] was > -10.

For `NCCCC[C@@H]1NC(=O)[C@@H](Cc2c[nH]c3ccccc23)NC(=O)[C@H](Cc2ccccc2)NC(=O)[C@@H]2C[C@@H](OC(=O)NCCN)CN2C(=O)[C@H](Cc2ccccc2)NC(=O)[C@H](Cc2ccc(OCc3ccccc3)cc2)NC1=O` (cyclo(F[Hyp]([CO-Ethylenediamine])F[dW]KY(Bn))), the inhibitory constant (Ki) in assay [1] was 0.794 nM; in assay [2] it was 2 nM; in assay [3], 3.98 nM; in assay [4], 0.398 nM; in assay [5], 501 nM.

For the compound `C[C@@H](O)[C@@H]1NC(=O)[C@H](CCCCN)NC(=O)[C@@H](Cc2c[nH]c3ccccc23)NC(=O)[C@H](Cc2ccccc2)NC(=O)[C@@H]2C[C@@H](O)CN2C(=O)[C@H](Cc2ccccc2)NC1=O` (cyclo(F[Hyp]F[dW]KT)), the Ki in assay [1] is 200 nM; in assay [2] it was 0.2 nM; in assay [3], > 1000 nM; in assay [4], > 1000 nM; in assay [5], > 1000 nM.

In the case of `NCCCC[C@@H]1NC(=O)[C@@H](Cc2c[nH]c3ccccc23)NC(=O)[C@H](Cc2ccccc2)NC(=O)[C@@H]2C[C@@H](O)CN2C(=O)[C@H](Cc2ccccc2)NC(=O)[C@H](Cc2ccc(OCc3ccccc3)cc2)NC1=O` (cyclo(F[Hyp]F[dW]KY(Bn))), the Ki in assay [1] is 1.58 nM; in assay [2], 0.794 nM; in assay [3] it was 63.1 nM; in assay [4], 0.316 nM; in assay [5], 316 nM.

Turning to `NCCCC[C@@H]1NC(=O)[C@@H](Cc2c[nH]c3ccccc23)NC(=O)[C@H](c2ccccc2)NC(=O)[C@@H]2C[C@@H](OC(=O)NCCN)CN2C(=O)[C@H](Cc2ccccc2)NC(=O)[C@H](Cc2ccc(OCc3ccccc3)cc2)NC1=O` [PASIREOTIDE] (cyclo(F[Hyp]([CO-Ethylenediamine])[Phg][dW]KY(Bn))), the midpoint of inhibition in assay [6], the IC50, lay at 0.4 nM. Moreover, the Ki is 0.794 nM in assay [1], 1 nM in assay [2], 6.31 nM in assay [3] and 0.126 nM in assay [4]. In addition, the Log Ki in assay [5] was > -7.

By Ki is commonly meant the equilibrium dissociation constant of an inhibitor or competing ligand from its target. Read a high Ki as lower affinity. Usually IC50 stands for the concentration that inhibits the measured activity by half. Higher therefore signals a need for much substance.
